Assay results taken from publication PMC9258321, “Structure-guided design of CPPC-paired disulfide-rich peptide libraries for ligand and drug discovery” (Chemical Science, 2022).
Bridge positions count the residues as written; N and C are the ends. Peptide text beside a SMILES is read from it. * marks the point of attachment. FITC = O=C1OC2(c3ccc(O)cc3Oc3cc(O)ccc32)c2ccc(NC(=S)*)cc21; βAla = NCCC(=O)O

How the values were obtained:
[1] = tested on: CD28 expressed on the surface of HEK293T cells; assay: Laser confocal cell imaging, labeling CD28 on HEK293T cells; format: cell-based; details: HEK293T cells transfected with mCherry-CD28 vs mCherry control; 1 μM peptide in DMEM, 30 min, washed; confocal colocalization
Method: Finally, we examined the specific binding capability of drp8 to CD28 expressed on the surface of the cells. HEK293T cells transfected with a plasmid expressing the extracellular domain of CD28 fused with an extracellular-targeting signaling sequence, a fluorescent mCherry tag, and a transmembrane domain was constructed for the experiments. Briefly, the transfected cells were incubated with the fluorescein-labeled drp8 for 30 min, followed by washing with culture media to remove the unbound peptide. Confocal fluorescence images were then recorded (Fig. 5d), showing the colocalization of fluorescence from the mCherry tag and the labeled peptide.
Surface plasmon resonance (SPR) assay
The affinity of peptides to Keap1 was measured using Biacore T200 (GE healthcare) at 25℃. […]
NMR samples were dissolved in 80% perdeuterated acetonitrile and 20% H2O for drp1, 75% perdeu-terated acetonitrile and […] for drp2-a, 60% perdeuterated acetonitrile and 40% H2O for drp8, 50% perdeuterated acetonitrile and 50% H2O for drp3 and drp6, 40% perdeuterated acetonitrile and 60% H2O for drp2-b and drp4 (The solution conditions depend on the dispersion of cross -peaks). […] Two dimensional (2D) 1H, 15N/13C HSQC spectra were recorded to obtain chemical shifts of heavy atoms in backbone and side-chains. […]

CD28 [2] = biological target: T1, CD28 (Homo sapiens, UniProt P10747); assay: FP assay: CD80 added to premixed oxidized FITC-drp8 and CD28; format: binding; details: CD80 50-500 nM added to 25 nM oxidized FITC-drp8 and 100 nM CD28, PBS pH 7.4, 20 min room temperature, Fig. S22
T1 construct: purchased Sino Biological 11524-HCCH
Method: (§1) min incubation at room temperature, the fluorescence anisotropies were measured using a plate reader (Eex= 485 nm, Eem=535 nm). All of the measurements were recorded in triplicate. In the fluorescence polarization assay s measuring the binding of reduced FITC-drp8 to CD28 and the binding of oxidized FITC-drp8 to CTLA-4, the fluorescence anisotrop ies were recorded in the same way as described above.
(§2) Dissociation constants ( KD) were determined by nonlinear regression analysis of anisotrop ies versus the concentrations of the protein using the following equation: […]
(§3) Y = A1 + (A2 − A1) × { 2×C } (1)
(§4) X: the concentration of protein, Y: the measured fluorescence anisotropy, C: the concentration of fluores-cent peptide, A1: the bottom plateaus of anisotropy, A2: the anisotropy signal in the presence of saturating concentrations of CD28, KD: the dissociation constant.
(§5) (b) Competition fluorescence polarization assay. The binding of drp8 to CD28 was measured by adding dilutions of drp8 to premixed oxidized FITC-drp8 and CD28 in PBS (pH 7.4). […] After 10 min incubation at room temperature, the plate was read using a plate reader (Eex= 485 nm, Eem = 535 nm). In the competition fluorescence polarization assay measuring the binding of drp1, drp7 and drp9 to CD28, the fluorescence anisotropies were recorded in the same way as described above. […]

CTLA-4 = assay: Fluorescence polarization binding assay to CTLA-4; details: FP assay, oxidized fluorescein-labeled peptide; Fig. S23
Method: as §1, §2, §3, §4, §5

CD28 [3] = biological target: T1, CD28; assay: Competition fluorescence polarization assay with oxidized FITC-drp8 as probe; format: binding; details: FP competition with oxidized FITC-drp8; negative control
Method: as §1, §2, §3, §4, §5

T1 sequence (P10747 19-220): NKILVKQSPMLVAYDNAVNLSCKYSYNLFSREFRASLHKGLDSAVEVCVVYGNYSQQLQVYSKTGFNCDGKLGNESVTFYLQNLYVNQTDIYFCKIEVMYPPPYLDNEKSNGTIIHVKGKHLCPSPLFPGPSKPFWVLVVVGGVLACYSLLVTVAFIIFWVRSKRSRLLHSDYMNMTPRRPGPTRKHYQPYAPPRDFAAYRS

## CC(C)C[C@@H]1NC(=O)CNC(=O)[C@H](CCC(=O)O)NC(=O)[C@@H]2CSSC[C@H](NC(=O)[C@H](CC(N)=O)NC(=O)[C@H](CC(N)=O)NC1=O)C(=O)N[C@@H](Cc1c[nH]c3ccccc13)C(=O)N[C@@H](Cc1ccccc1)C(=O)N[C@@H](C(C)C)C(=O)N[C@@H](CCC(=O)O)C(=O)N[C@@H](C)C(=O)N[C@H]1CSSC[C@H](NC(=O)CNC(=O)CCNC(=S)Nc3ccc4c(c3)C(=O)OC43c4ccc(O)cc4Oc4cc(O)ccc43)C(=O)N3CCC[C@H]3C(=O)N3CCC[C@H]3C(=O)N[C@@H](CSSC[C@@H](C(N)=O)NC(=O)[C@@H]3CCCN3C(=O)[C@@H]3CCCN3C1=O)C(=O)N1CCC[C@H]1C(=O)N[C@@H](CCCNC(=N)N)C(=O)N[C@@H](CCC(=O)O)C(=O)N[C@@H](Cc1c[nH]cn1)C(=O)N[C@@H](CCC(=O)O)C(=O)N[C@@H](CC(C)C)C(=O)N[C@@H](C(C)C)C(=O)N[C@@H](C)C(=O)N[C@@H](C(C)C)C(=O)N1CCC[C@H]1C(=O)N2 [FITC-drp8] ({FITC-βAla}-GCPPCPREHELVAVPCEGLNNCWFVEACPPC-NH2; disulfide 2-28, 5-31, 16-22)
[1]
  binding to CD28 on the cell surface (in words): can specifically bind with CD28 on the live cell surface

## CC(C)C[C@@H]1NC(=O)CNC(=O)[C@H](CCC(=O)O)NC(=O)[C@@H]2CSSC[C@H](NC(=O)[C@H](CC(N)=O)NC(=O)[C@H](CC(N)=O)NC1=O)C(=O)N[C@@H](Cc1c[nH]c3ccccc13)C(=O)N[C@@H](Cc1ccccc1)C(=O)N[C@@H](C(C)C)C(=O)N[C@@H](CCC(=O)O)C(=O)N[C@@H](C)C(=O)N[C@H]1CSSC[C@H](NC(=O)CN)C(=O)N3CCC[C@H]3C(=O)N3CCC[C@H]3C(=O)N[C@@H](CSSC[C@@H](C(N)=O)NC(=O)[C@@H]3CCCN3C(=O)[C@@H]3CCCN3C1=O)C(=O)N1CCC[C@H]1C(=O)N[C@@H](CCCNC(=N)N)C(=O)N[C@@H](CCC(=O)O)C(=O)N[C@@H](Cc1c[nH]cn1)C(=O)N[C@@H](CCC(=O)O)C(=O)N[C@@H](CC(C)C)C(=O)N[C@@H](C(C)C)C(=O)N[C@@H](C)C(=O)N[C@@H](C(C)C)C(=O)N1CCC[C@H]1C(=O)N2 [drp8] (H-GCPPCPREHELVAVPCEGLNNCWFVEACPPC-NH2; disulfide 2-28, 5-31, 16-22)
CD28 [2]
  competition with CD80 for CD28 (in words): capable of blocking the CD80 and CD28 interaction
CTLA-4
  binding affinity to CTLA4 (in words): negligible binding affinity

## H-CPPCHGRPTCDSFTNCWELLTCPPC-NH2 (also: bicyclic or more (positions not given here)) [drp1, template and negative control for CD28]
CD28 [3]
  binding to CD28 in competition assay (in words): negligibly binds with CD28
